Measured values published in ChEMBL document CHEMBL1201862, “PubChem BioAssay data set” (2004).
Calls of active or inactive are those of the source. No rule for the calls is given here.

Key:
[1] = target: T1, High affinity choline transporter 1 (Homo sapiens, UniProt Q9GZV3); test: human choline transporter blockers, potency – cell-based, 5-point CRC, membrane potential dye, dose response (AID 504840); assay type: functional
T1 sequence (Q9GZV3 whole entry): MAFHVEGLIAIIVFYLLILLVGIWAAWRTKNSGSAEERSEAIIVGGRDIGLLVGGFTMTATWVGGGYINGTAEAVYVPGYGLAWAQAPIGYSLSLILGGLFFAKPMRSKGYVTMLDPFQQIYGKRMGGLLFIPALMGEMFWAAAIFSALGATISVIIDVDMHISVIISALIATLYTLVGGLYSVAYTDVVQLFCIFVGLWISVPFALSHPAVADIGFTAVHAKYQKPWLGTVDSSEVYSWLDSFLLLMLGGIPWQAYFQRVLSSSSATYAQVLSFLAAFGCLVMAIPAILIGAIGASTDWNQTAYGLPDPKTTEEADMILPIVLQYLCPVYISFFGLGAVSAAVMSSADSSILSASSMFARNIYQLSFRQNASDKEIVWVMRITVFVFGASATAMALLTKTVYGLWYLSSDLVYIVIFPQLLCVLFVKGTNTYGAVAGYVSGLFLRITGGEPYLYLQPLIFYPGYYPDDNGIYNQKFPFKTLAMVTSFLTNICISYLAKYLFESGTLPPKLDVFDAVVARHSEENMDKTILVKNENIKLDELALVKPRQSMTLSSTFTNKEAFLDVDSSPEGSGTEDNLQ

[2] = target: T1, High affinity choline transporter 1; test: human choline transporter blockers, potency – cell-based, 10-point CRC, membrane potential dye, dose response (AID 588401); assay type: functional;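 also: membrane potential dye fluorescence of choline-evoked depolarization via CHT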

IC50 [1]: 2.46 µM (active) | IC50 [2]: 1.19 µM (active)
Structure (SMILES): CCCCN(CCCC)CCCNC(=O)C12CN(Cc3ccccc3)CC1C(c1cccc([N+](=O)[O-])c1)=NO2 (configuration not stated)
